Test results taken from US12371454B2, “Cyclic peptide compound having Kras inhibitory action” (priority 2019, dated 2025).
Starred links: 1 amine or outer side, 2 acyl side, 3 side chain; linkers in the order of their positions; H or OH if unused. Positions of bridges follow the written chain, without caps; N, C: chain ends. Non-standard residues stand in square brackets, D forms with d. Residues, ends and D or L forms follow the SMILES beside them. *: point of attachment. hPhe(3,5-F2-4-CF3) = N[C@@H](CCc1cc(F)c(C(F)(F)F)c(F)c1)C(=O)O; hPhe(3-Cl-4-CF3) = N[C@@H](CCc1ccc(C(F)(F)F)c(Cl)c1)C(=O)O; NMePhe(4-CF3) = CN[C@@H](Cc1ccc(C(F)(F)F)cc1)C(=O)O; X23 = CN([C@@H](Cc1ccccc1OC(F)(F)F)C(=O)[*:2])[*:1]; hPhe(4-CF3) = N[C@@H](CCc1ccc(C(F)(F)F)cc1)C(=O)O; NMePhe(4-Cl) = CN[C@@H](Cc1ccc(Cl)cc1)C(=O)O; NMePhe(4-Me) = CN[C@@H](Cc1ccc(C)cc1)C(=O)O; NMePhe(4-F) = CN[C@@H](Cc1ccc(F)cc1)C(=O)O; hPhe(4-Cl) = N[C@@H](CCc1ccc(Cl)cc1)C(=O)O; NMedβ3hAla = C[C@H](CC(=O)[*:2])N(C)[*:1]; Phe(3-CN) = N#Cc1cccc(C[C@H](N)C(=O)O)c1; NMeGly(cPent) = CN[C@H](C(=O)O)C1CCCC1; NMeCha = CN[C@@H](CC1CCCCC1)C(=O)O; NEtLeu = CCN[C@@H](CC(C)C)C(=O)O; NMeF = CN[C@@H](Cc1ccccc1)C(=O)O; NMeI = CC[C@H](C)[C@H](NC)C(=O)O; NMeD = CN[C@@H](CC(=O)O)C(=O)O; NMeL = CN[C@@H](CC(C)C)C(=O)O; NMeV = CN[C@H](C(=O)O)C(C)C; d(β3hA) = C[C@@H](N)CC(=O)O; NMeA = CN[C@@H](C)C(=O)O; NMeAib = CNC(C)(C)C(=O)O; Piperidide = C1CCN(*)CC1; Pyrrolidide = C1CCN(*)C1; dNMeA = CN[C@H](C)C(=O)O; Ac5c = NC1(C(=O)O)CCCC1; Aze = O=C(O)[C@@H]1CCN1; Thp = NC1(C(=O)O)CCOCC1; Isopentyl = CC(C)CC*; Sar = CNCC(=O)O

These molecules were tested against T1, Kras and SOS1 (biotin-tagged human Kras loaded with GDP, His-tagged human SOS1) (Homo sapiens, UniProt P01116, G12D) (assay: Protein-protein interaction inhibition between Kras and SOS1 (KrasGl2D-SOS PPI) using AlphaScreen). Conditions: AlphaScreen; biotin-tagged human Kras loaded with GDP, His-tagged human SOS1; read-out: KRAS G12D-SOS PPI IC50.
T1 construct: made in house; host or cells: E. coli (stated for Kras only)
T1 sequence (P01116 1-188 isoform P01116-2 G12D): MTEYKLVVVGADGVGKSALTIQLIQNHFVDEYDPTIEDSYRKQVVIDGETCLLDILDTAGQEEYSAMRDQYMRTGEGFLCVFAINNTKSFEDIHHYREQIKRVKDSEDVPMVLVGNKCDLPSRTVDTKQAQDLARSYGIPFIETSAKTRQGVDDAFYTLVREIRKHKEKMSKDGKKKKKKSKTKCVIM
Format: binding
How it was run: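 Donor beads (nickel) hold His-SOS1; acceptor beads (streptavidin) hold biotin-Kras bound to GDP. Signal measured at 520-620 nm following 680 nm excitation.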
Molecule CC[C@H](C)[C@@H]1NC(=O)[C@H](CC(C)C)N(C)C(=O)C[C@@H](C)N(C)C(=O)[C@H](CC(C)C)N(C)C(=O)C2(CCOCC2)NC(=O)[C@@H]2CCCN2C(=O)[C@H](CCc2ccc(Cl)cc2)NC(=O)CN(C)C(=O)[C@H](CC2CCCCC2)N(C)C(=O)CN(C)C(=O)CN(C)C1=O [Compound 802] (cyclo(I[Sar][Sar][NMeCha][Sar][hPhe(4-Cl)]P[Thp][NMeL][NMedβ3hAla][NMeL])) has an IC50 of 390 nM. In the case of CC[C@H](C)[C@@H]1NC(=O)[C@H](CC(C)C)N(C)C(=O)C[C@@H](C)NC(=O)[C@H](C(C)C)N(C)C(=O)C2(CCCC2)NC(=O)[C@@H]2CCCN2C(=O)[C@H](CCc2ccc(C(F)(F)F)c(Cl)c2)NC(=O)CN(C)C(=O)[C@H](Cc2ccccc2OC(F)(F)F)N(C)C(=O)CN(C)C(=O)CN(C)C1=O [Compound 1635] (cyclo([Ac5c][NMeV][d(β3hA)][NMeL]I[Sar][Sar][X23][Sar][hPhe(3-Cl-4-CF3)]P)), the IC50 is reported as 140 nM. CC[C@H](C)[C@@H]1NC(=O)[C@H](CC(C)C)N(C)C(=O)C[C@@H](C)NC(=O)[C@H](C(C)C)N(C)C(=O)C2(CCCC2)NC(=O)[C@@H]2CCCN2C(=O)[C@H](CCc2ccc(C(F)(F)F)c(Cl)c2)NC(=O)CN(C)C(=O)[C@H](CC2CCCCC2)N(C)C(=O)[C@@H]2CCN2C(=O)[C@@H]2CCCN2C1=O [Compound 1082] (cyclo([Ac5c][NMeV][d(β3hA)][NMeL]IP[Aze][NMeCha][Sar][hPhe(3-Cl-4-CF3)]P)) showed an IC50 of 270 nM. CC[C@H](C)[C@@H]1NC(=O)[C@H](C)N(C)C(=O)C[C@@H](C(=O)N2CCCC2)NC(=O)[C@H](CC(C)C)N(C)C(=O)[C@H](Cc2ccccc2)N(C)C(=O)[C@H](COCCC(C)C)NC(=O)[C@H](CCc2ccc(C(F)(F)F)cc2)NC(=O)CN(C)C(=O)[C@H](Cc2ccc(Cl)cc2)N(C)C(=O)CN(C)C(=O)CN(C)C1=O [Compound 1119] ([NMeA]I[Sar][Sar][NMePhe(4-Cl)][Sar][hPhe(4-CF3)]S(Isopentyl)[NMeF][NMeL]D-Pyrrolidide; lactam N-11) gave an IC50 of 180 nM. For CC[C@H](C)[C@@H]1NC(=O)[C@H](C)N(C)C(=O)C[C@@H](C(=O)N(C)C)N(C)C(=O)[C@H]([C@@H](C)CC)N(C)C(=O)C2(CCCC2)NC(=O)[C@H](Cc2ccc(F)cc2)N(C)C(=O)[C@H](CCc2cc(F)c(C(F)(F)F)c(F)c2)NC(=O)CN(C)C(=O)[C@H](Cc2ccc(C)cc2)N(C)C(=O)[C@@H]2CCN2C(=O)[C@H](C)N(C)C1=O [Compound 1914] ([NMeA]I[NMeA][Aze][NMePhe(4-Me)][Sar][hPhe(3,5-F2-4-CF3)][NMePhe(4-F)][Ac5c][NMeI][NMeD]-NMe2; lactam N-11), the IC50 was 7.7 nM. CC[C@H](C)[C@@H]1NC(=O)[C@H](C)N(C)C(=O)C[C@@H](C(=O)N2CCCCC2)N(C)C(=O)[C@H](C(C)C)N(C)C(=O)C2(CCCC2)NC(=O)[C@@H]2CCCN2C(=O)[C@H](CCc2ccc(C(F)(F)F)c(Cl)c2)NC(=O)CN(C)C(=O)[C@H](Cc2ccc(F)cc2)N(C)C(=O)[C@@H]2CCCN2C(=O)CN(C)C1=O [Compound 1698] ([NMeA]I[Sar]P[NMePhe(4-F)][Sar][hPhe(3-Cl-4-CF3)]P[Ac5c][NMeV][NMeD]-Piperidide; lactam N-11) showed an IC50 of 1.2 nM. Work on CC[C@H](C)[C@@H]1NC(=O)[C@H](CC(C)C)N(C)C(=O)C[C@@H](C)N(C)C(=O)[C@H](CC(C)C)NC(=O)C(C)(C)N(C)C(=O)[C@H](CC(C)C)NC(=O)[C@H](CCc2ccc(C(F)(F)F)c(Cl)c2)NC(=O)[C@@H](C)N(C)C(=O)[C@H](Cc2ccc(C(F)(F)F)cc2)N(C)C(=O)[C@@H]2CCN2C(=O)CN(C)C1=O [Compound 1395] (cyclo([Aze][NMePhe(4-CF3)][dNMeA][hPhe(3-Cl-4-CF3)]L[NMeAib]L[NMedβ3hAla][NMeL]I[Sar])) yielded an IC50 of 270 nM. In the case of CC[C@H](C)[C@@H]1NC(=O)[C@H](C)N(C)C(=O)C[C@@H](C(=O)N2CCCCC2)NC(=O)[C@H](CC(C)C)N(C)C(=O)[C@H](Cc2ccccc2)N(C)C(=O)[C@H](CC(C)C)NC(=O)[C@H](Cc2cccc(C#N)c2)NC(=O)CN(C)C(=O)[C@H](Cc2ccc(Cl)cc2)N(C)C(=O)CN(C)C(=O)CN(C)C1=O [Compound 252] ([NMeA]I[Sar][Sar][NMePhe(4-Cl)][Sar][Phe(3-CN)]L[NMeF][NMeL]D-Piperidide; lactam N-11), the IC50 is reported as 55 nM. In the case of CC[C@H](C)[C@@H]1NC(=O)[C@H](CC(C)C)N(CC)C(=O)C[C@@H](C(=O)N(C)C)N(C)C(=O)[C@H](C2CCCC2)N(C)C(=O)C2(CCCC2)NC(=O)[C@@H]2CCCN2C(=O)[C@H](CCc2ccc(C(F)(F)F)c(Cl)c2)NC(=O)CN(C)C(=O)[C@H](Cc2ccc(C)cc2)N(C)C(=O)[C@@H]2CCN2C(=O)[C@H](C)NC1=O [Compound 1282] ([NEtLeu]IA[Aze][NMePhe(4-Me)][Sar][hPhe(3-Cl-4-CF3)]P[Ac5c][NMeGly(cPent)][NMeD]-NMe2; lactam N-11), the IC50 is reported as 0.81 nM. CC[C@H](C)[C@@H]1NC(=O)[C@H](CC(C)C)N(C)C(=O)C[C@@H](C(=O)N2CCCCC2)N(C)C(=O)[C@H](C(C)C)N(C)C(=O)C2(CCCC2)NC(=O)[C@@H]2CCCN2C(=O)[C@H](CCc2ccc(Cl)cc2)NC(=O)CN(C)C(=O)[C@H](CC2CCCCC2)N(C)C(=O)[C@@H]2CCCN2C(=O)CN(C)C1=O [Compound 953] ([NMeL]I[Sar]P[NMeCha][Sar][hPhe(4-Cl)]P[Ac5c][NMeV][NMeD]-Piperidide; lactam N-11) gave an IC50 of 180 nM.
